Experimental data: PMC9224473 (International Journal of Molecular Sciences, 2022)
≈ marks a conversion by molar mass, not a printed value. Like-named read-outs stand apart in the source and are kept apart here.

Legend:
S. aureus NCTC 4163 = test: MIC, broth microdilution, standard strain; assay type: cell-based, Staphylococcus aureus; details: 35 °C; for MIC: Staphylococcus aureus, NCTC4163, 19 h
S. aureus ATCC 25923 = test: MIC, broth microdilution, standard strain; assay type: cell-based, Staphylococcus aureus; details: 35 °C; for MIC: Staphylococcus aureus, ATCC25923, 19 h
E. coli ATCC 25922 = test: MIC, broth microdilution, standard strain; assay type: cell-based, Escherichia coli; details: 35 °C; for MIC E. coli ATCC 25922: 19 h; for MIC: Escherichia coli, ATCC25922, 19 h
S. aureus ATCC 29213 = test: MIC, broth microdilution, standard strain; assay type: cell-based, Staphylococcus aureus; details: 35 °C; for MIC: Staphylococcus aureus, ATCC29213, 19 h
P. aeruginosa ATCC 15442 = test: MIC, broth microdilution, standard strain; assay type: cell-based, Pseudomonas aeruginosa; details: 35 °C; for MIC: Pseudomonas aeruginosa, ATCC15442, 19 h
[1] = test system: HCT116 (human colon cancer); test: MTT cytotoxicity assay; assay type: cell-based; details: mean SD
Protocol: (§1) The human cell lines SW480 (primary colon cancer), SW620 (lymph node metastatic colon cancer from the same patient as primary cancer cells), HCT116 (colon carcinoma), HepG2 (liver cancer), and HaCaT (immortalized keratinocytes) were obtained from the American Type Culture Collection (ATCC, Rockville, MD, USA). The SW480, SW620 and HCT116 cells were grown in MEM (ThermoSci, Waltham, MA, USA), HepG2 and HaCaT in DMEM High Glucose (Biowest SAS, Nuaillé, France) supplemented with 10% foetal bovine serum (FBS), HEPES (20 mM), and antibiotics (100 U mL^−1 of Penicillin and 100 μg mL^−1 of Streptomycin). The cells were incubated in a humidified incubator at 37 °C/5% CO2, until 80–90% confluence was reached.
(§2) The cell viability was assessed by using of MTT salt [3-(4,5-dimethylthiazol-2-yl)-2,5-diphenyltetrazolium bromide] converted by mitochondrial dehydrogenase, occurring in living cells. The cells were seeded in 96-well plates at a density of 1 × 10^4 cells per well and allowed to adhere for 24 h at 37 °C in a CO2 humidified incubator. […]. The untreated cells were used as the control.
(§3) After 72 h incubation, the medium was replaced with 200 µL per well of free-serum medium containing 0.5 mg mL^−1 MTT and incubated for 4 h at 37 °C in a CO2 humidified incubator. Subsequently, the medium was removed and dimethyl sulfoxide (DMSO) with isopropanol (1:1) was added to dissolve the formazan crystals. The optical density was measured using UVM 340 reader (ASYS Hitech GmbH, Eugendorf, Austria) at a wavelength of 570 nm. The experiments were repeated three times. The cell viability was calculated as the percent of MTT reduced in treated cells versus control cells (untreated cells). The number of viable cells cultured without tested compounds was assumed as 100%. A decreased relative MTT level indicates decreased cell viability. The IC50 values were estimated using CompuSyn version 1.0.

[2] = test system: HepG2 (human liver cancer); test: MTT cytotoxicity assay; assay type: cell-based; details: mean SD
Protocol: as §1, §2, §3

[3] = test system: SW480 (human primary colon cancer); test: MTT cytotoxicity assay; assay type: cell-based; details: mean SD
Protocol: as §1, §2, §3

[4] = test system: HaCaT (human immortal keratinocyte cell line); test: MTT cytotoxicity assay; assay type: cell-based; details: 72 h, mean SD, read-out: IC50 HaCaT (normal cells)
Protocol: as §1, §2, §3

[5] = test system: S. epidermidis ATCC 35984; test: MIC, broth microdilution, standard strain; assay type: cell-based, Staphylococcus epidermidis; details: 35 °C; for MIC: Staphylococcus epidermidis, ATCC35984, 19 h
E. coli 600 = test: MIC, broth microdilution, clinical strain; assay type: cell-based, Escherichia coli; details: 35 °C; for MIC: Escherichia coli, 600, 19 h
S. epidermidis KR 4243 = test: MIC, broth microdilution, clinical strain; assay type: cell-based, Staphylococcus epidermidis; details: 35 °C; for MIC: Staphylococcus epidermidis, KR4243, 19 h
E. coli 520 = test: MIC, broth microdilution, clinical strain; assay type: cell-based, Escherichia coli; details: 35 °C; for MIC: Escherichia coli, 520, 19 h
P. aeruginosa 659 = test: MIC, broth microdilution, clinical strain; assay type: cell-based, Pseudomonas aeruginosa; details: for MIC: Pseudomonas aeruginosa, 659, read-out: MIC P. aeruginosa 659, 19 h, 35 °C
S. aureus T 5591 = test: MIC, broth microdilution, clinical strain; assay type: cell-based, Staphylococcus aureus; details: 35 °C; for MIC: Staphylococcus aureus, T5591, 19 h
E. coli 510 = test: MIC, broth microdilution, clinical strain; assay type: cell-based, Escherichia coli; details: 35 °C; for MIC: Escherichia coli, 510, 19 h
S. aureus T 5595 = test: MIC, broth microdilution, clinical strain; assay type: cell-based, Staphylococcus aureus; details: 35 °C; for MIC: Staphylococcus aureus, T5595, 19 h
[6] = test system: SW620 (human metastatic colon cancer); test: MTT cytotoxicity assay; assay type: cell-based; details: mean SD
Protocol: as §1
The cell viability was assessed by using of MTT salt [3-(4,5-dimethylthiazol-2-yl)-2,5-diphenyltetrazolium bromide] converted by mitochondrial dehydrogenase, occurring in living cells. […] The untreated cells were used as the control.
as §3, with “Subsequently,” for “After 72 h incubation, the medium was replaced with 200 µL per well of free-serum medium containing 0.5 mg mL^−1 MTT and incubated for 4 h at 37 °C in a CO2 humidified incubator. Subsequently,”

S. pasteuri KR 4358 = test: MIC, broth microdilution, clinical strain; assay type: cell-based, Staphylococcus pasteuri; details: 35 °C; for MIC: Staphylococcus pasteuri, KR4358, 19 h
[7] = test system: S. epidermidis ATCC 12228; test: MIC, broth microdilution, standard strain; assay type: cell-based, Staphylococcus epidermidis; details: 35 °C; for MIC: Staphylococcus epidermidis, ATCC12228, 19 h
S. aureus ATCC 6538 = test: MIC, broth microdilution, standard strain; assay type: cell-based, Staphylococcus aureus; details: 35 °C; for MIC: Staphylococcus aureus, ATCC6538, 19 h

| Compound | MIC (S. aureus NCTC 4163) [µg/mL] | MIC (S. aureus ATCC 25923) [µg/mL] | MIC E. coli ATCC 25922 (E. coli ATCC 25922) [µg/mL] | MIC (E. coli ATCC 25922) [µg/mL] | MIC (S. aureus ATCC 29213) [µg/mL] | MIC (P. aeruginosa ATCC 15442) [µg/mL] | IC50 ([1]; Homo sapiens, HCT-116, 72 h) [µM] | IC50 ([2]; Homo sapiens, HepG2, 72 h) [µM] | IC50 ([3]; Homo sapiens, SW480, 72 h) [µM] | IC50 ([4]; Homo sapiens, HaCaT) [µM] | MIC [5] [µg/mL] | MIC (E. coli 600) [µg/mL] | MIC (S. epidermidis KR 4243) [µg/mL] | MIC (E. coli 520) [µg/mL] | MIC (P. aeruginosa 659) [µg/mL] | MIC (S. aureus T 5591) [µg/mL] | MIC (E. coli 510) [µg/mL] | MIC (S. aureus T 5595) [µg/mL] | IC50 ([6]; Homo sapiens, SW-620, 72 h) [µM] | MIC (S. pasteuri KR 4358) [µg/mL] | also measured |
| --- | --- | --- | --- | --- | --- | --- | --- | --- | --- | --- | --- | --- | --- | --- | --- | --- | --- | --- | --- | --- | --- |
| Cc1ccc(C(C)C)c(OC(=O)CCN2CCN(c3cc4c(cc3F)c(=O)c(C(=O)O)cn4C3CC3)CC2)c1 [Compound 11, 1-cyclopropyl-6-fluoro-7-{4-[3-(2-isopropyl-5-methylphenoxy)-3-oxopropyl]piperazin-1-yl}-4-oxo-1,4-dihydroquinoline-3-carboxylic acid] | 4 (≈ 7.47 µM) | 4 (≈ 7.47 µM) | 4 (≈ 7.47 µM) | 2 to 4 (≈ 3.73 to 7.47 µM) | 4 (≈ 7.47 µM) | 16 (≈ 29.9 µM) | 39.1 ± 5.8 | 51.3 ± 4.1 | 33.7 ± 6.6 | > 100 | 4 (≈ 7.47 µM) | 4 (≈ 7.47 µM) | 4 (≈ 7.47 µM) | 8 (≈ 14.9 µM) | 16 (≈ 29.9 µM) | 4 (≈ 7.47 µM) | 256 (≈ 478 µM) | 8 (≈ 14.9 µM) | 43.5 ± 7.5 | 8 (≈ 14.9 µM) | MIC [7]: 4 µg/mL (≈ 7.47 µM); MIC (S. aureus ATCC 6538): 4 µg/mL (≈ 7.47 µM) |
| 1-cyclopropyl-6-fluoro-7-{4-[2-(2-isopropyl-5-methylphenoxy)acetyl]piperazin-1-yl}-4-oxo-1,4-dihydroquinoline-3-carboxylic acid [Compound 10] |  |  | 32 |  |  |  |  |  |  |  |  |  |  |  |  |  |  |  |  |  | MIC S. aureus NCTC 4163 (S. aureus NCTC 4163; 19 h): 4 µg/mL; MIC S. aureus ATCC 25923 (S. aureus ATCC 25923; 19 h): 4 µg/mL; MIC S. aureus ATCC 29213 (S. aureus ATCC 29213; 19 h): 4 µg/mL; MIC P. aeruginosa ATCC 15442 (P. aeruginosa ATCC 15442; 19 h): 256 µg/mL; IC50 ([1]; 72 h): > 100 µM; IC50 ([2]; 72 h): 26.1 ± 0.1 µM; IC50 ([3]; 72 h): 57.2 ± 2.7 µM; IC50 [4]: 37.1 ± 2.1 µM; MIC S. epidermidis ATCC 35984 ([5]; 19 h): 8 µg/mL; MIC E. coli 600 (E. coli 600; 19 h): 64 µg/mL; MIC S. epidermidis KR 4243 (S. epidermidis KR 4243; 19 h): 16 µg/mL; MIC E. coli 520 (E. coli 520; 19 h): 64 µg/mL; MIC P. aeruginosa 659 (P. aeruginosa 659; 19 h, 35 °C): 256 µg/mL; MIC S. aureus T 5591 (S. aureus T 5591; 19 h): 8 µg/mL; MIC E. coli 510 (E. coli 510; 19 h): >256 µg/mL; MIC S. aureus T 5595 (S. aureus T 5595; 19 h): 8 µg/mL; IC50 ([6]; 72 h): 59 ± 1.2 µM; MIC S. pasteuri KR 4358 (S. pasteuri KR 4358; 19 h): 16 µg/mL; MIC S. epidermidis ATCC 12228 ([7]; 19 h): 8 µg/mL; MIC S. aureus ATCC 6538 (S. aureus ATCC 6538; 19 h): 4 µg/mL |
| COc1cccc2c1C(=O)c1c(O)c3c(c(O)c1C2=O)C[C@@](O)(C(=O)CO)C[C@@H]3O[C@H]1C[C@H](N)[C@H](O)[C@H](C)O1 [Doxorubicin, reference compound] |  |  |  |  |  |  | 0.59 ± 0.02 | 0.38 | 0.75 ± 0.1 | 0.29 ± 0.1 |  |  |  |  |  |  |  |  |  |  |  |
| Cc1ccc(C(C)C)c(OC(=O)CCCCCN2CCN(c3cc4c(cc3F)c(=O)c(C(=O)O)cn4C3CC3)CC2)c1 [Compound 14, 1-cyclopropyl-6-fluoro-7-{4-[6-(2-isopropyl-5-methylphenoxy)-6-oxohexyl]piperazin-1-yl}-4-oxo-1,4-dihydroquinoline-3-carboxylic acid] | 1 (≈ 1.73 µM) | 1 (≈ 1.73 µM) | 2 (≈ 3.46 µM) | 2 to 4 (≈ 3.46 to 6.92 µM) | 2 (≈ 3.46 µM) | 16 (≈ 27.7 µM) | 38.1 ± 3.4 | 44.4 ± 3.5 | 35.2 ± 1.2 | 31.8 ± 1.9 | 1 (≈ 1.73 µM) | 8 (≈ 13.8 µM) | 2 (≈ 3.46 µM) | 16 (≈ 27.7 µM) | 64 (≈ 111 µM) | 4 (≈ 6.92 µM) | 128 (≈ 222 µM) | 2 (≈ 3.46 µM) | 53.1 ± 0.3 | 2 (≈ 3.46 µM) | MIC [7]: 1 µg/mL (≈ 1.73 µM); MIC (S. aureus ATCC 6538): 2 µg/mL (≈ 3.46 µM) |
